Measured values: PMC5078040 (Oncotarget, 2016)

Assays:
CSF1R-autoinhibited = biological target: T1, CSF1R-autoinhibited (Homo sapiens, UniProt P07333); assay: KinomeScan; type: binding; conditions: 1uM
T1 construct: purchased DiscoveRx KINOMEscan

CTK = biological target: T2, CTK (Homo sapiens, UniProt P42679); assay: KinomeScan; type: binding; conditions: 1uM
T2 construct: purchased DiscoveRx KINOMEscan

ZAP70 = biological target: T3, ZAP70 (Homo sapiens, UniProt P43403); assay: KinomeScan; type: binding; conditions: 1uM
T3 construct: purchased DiscoveRx KINOMEscan

CLK3 = biological target: T4, CLK3 (Homo sapiens, UniProt P49761); assay: KinomeScan; type: binding; conditions: 1uM
T4 construct: purchased DiscoveRx KINOMEscan

GSK3A = biological target: T5, GSK3A (Homo sapiens, UniProt P49840); assay: KinomeScan; type: binding; conditions: 1uM
T5 construct: purchased DiscoveRx KINOMEscan

ERK4 = biological target: T6, ERK4 (Homo sapiens, UniProt P31152); assay: KinomeScan; type: binding; conditions: 1uM
T6 construct: purchased DiscoveRx KINOMEscan

CSNK1G2 = biological target: T7, CSNK1G2 (Homo sapiens, UniProt P78368); assay: KinomeScan; type: binding; conditions: 1uM
T7 construct: purchased DiscoveRx KINOMEscan

BMPR2 = biological target: T8, BMPR2 (Homo sapiens, UniProt Q13873); assay: KinomeScan; type: binding; conditions: 1uM
T8 construct: purchased DiscoveRx KINOMEscan

FGFR2 = biological target: T9, FGFR2 (Homo sapiens, UniProt P21802); assay: KinomeScan; type: binding; conditions: 1uM
T9 construct: purchased DiscoveRx KINOMEscan

EPHA4 = biological target: T10, EPHA4 (Homo sapiens, UniProt P54764); assay: KinomeScan; type: binding; conditions: 1uM
T10 construct: purchased DiscoveRx KINOMEscan

CDKL3 = biological target: T11, CDKL3 (Homo sapiens, UniProt Q8IVW4); assay: KinomeScan; type: binding; conditions: 1uM
T11 construct: purchased DiscoveRx KINOMEscan

PARP cleavage = assay: Apoptosis (western-blot); type: cell-based, human; conditions: within 12 hours
From the text: Then, apoptosis of MOLM13, HT, MEC-1 cells were detected by western-blot using PARP, GAPDH antibody (CST).

FLT3(N841I) = biological target: T12, FLT3(N841I) (Homo sapiens, UniProt P36888, N841I); assay: KinomeScan; type: binding; conditions: 1uM
T12 construct: purchased DiscoveRx KINOMEscan

TESK1 = biological target: T13, TESK1 (Homo sapiens, UniProt Q15569); assay: KinomeScan; type: binding; conditions: 1uM
T13 construct: purchased DiscoveRx KINOMEscan

p38-alpha = biological target: T14, p38-alpha (Homo sapiens, UniProt Q16539); assay: KinomeScan; type: binding; conditions: 1uM
T14 construct: purchased DiscoveRx KINOMEscan

CDK2 = biological target: T15, CDK2 (Homo sapiens, UniProt P24941); assay: KinomeScan; type: binding; conditions: 1uM
T15 construct: purchased DiscoveRx KINOMEscan

AML patient primary cell = assay: Anti-proliferative efficacy against patient primary cells; type: cell-based; conditions: Homo sapiens
Method: Mononuclear cells were isolated from AML patients. Mononuclear cells were isolated by density gradient centrifugation through Ficoll-Plaque Plus (Amersham Pharmacia Biotech AB, Uppsala, Sweden) at 2000 rpm for 30 minutes, followed by two washes in 1X PBS. Freeze-thawed cells were then cultured in liquid culture (DMEM, supplemented with 20% FBS). All blood and bone marrow samples from AML patients were obtained through written consent under approval of the Dana Farber Cancer Institute Institutional Review Board. The ethics committees approved the consent procedure.
Cells were grown in 96-well culture plates (3000-4000/well). […] Cell proliferation was determined after treatment with compounds for 72 hours. Cell viability was measured using the CellTiter–Glo Assay Kit (Promega, USA), according to the manufacturer's instructions, and luminescence was measured in a multi-label reader (Envision, PerkinElmer, USA). Data were normalized to control groups (DMSO) and represented by the mean of three independent measurements with standard error <20%. GI50 values were calculated using Prism 5.0 (GraphPad Software, San Diego, CA).

FLT3 = biological target: T16, FLT3 (Homo sapiens, UniProt P36888); assay: KinomeScan; type: binding; conditions: 1uM
T16 construct: purchased DiscoveRx KINOMEscan

BLK = biological target: T17, BLK (Homo sapiens, UniProt P51451); assay: KinomeScan; type: binding; conditions: 1uM
T17 construct: purchased DiscoveRx KINOMEscan

SYK = biological target: T18, SYK (Homo sapiens, UniProt P43405); assay: KinomeScan; type: binding; conditions: 1uM
T18 construct: purchased DiscoveRx KINOMEscan

CSNK1A1 = biological target: T19, CSNK1A1 (Homo sapiens, UniProt P48729); assay: KinomeScan; type: binding; conditions: 1uM
T19 construct: purchased DiscoveRx KINOMEscan

SBK1 = biological target: T20, SBK1 (Homo sapiens, UniProt Q52WX2); assay: KinomeScan; type: binding; conditions: 1uM
T20 construct: purchased DiscoveRx KINOMEscan

EPHA8 = biological target: T21, EPHA8 (Homo sapiens, UniProt P29322); assay: KinomeScan; type: binding; conditions: 1uM
T21 construct: purchased DiscoveRx KINOMEscan

PI3Kγ = PI3Kγ (Homo sapiens, UniProt P48736); assay: biochemical
Method: The reaction in each tube was started immediately by adding ATP and kept going for an hour under 37°C. After the tube cooled for 5 minutes at room temperature, 5 μL solvent reactions were carried out in a 384-well plate. Then 5 μL of ADP-Glo™ reagent was added into each well to stop the reaction and consume the remaining ADP within 40 minutes. At the end, 10 μL of kinase detection reagent was added into the well and incubated for 30 minutes to produce a luminescence signal. Luminescence signal was measured with an automated plate reader (Perkin-Elmer Envision) and each measurement was performed in triplicate.

PRKX = biological target: T22, PRKX (Homo sapiens, UniProt P51817); assay: KinomeScan; type: binding; conditions: 1uM
T22 construct: purchased DiscoveRx KINOMEscan

PAK3 = biological target: T23, PAK3 (Homo sapiens, UniProt O75914); assay: KinomeScan; type: binding; conditions: 1uM
T23 construct: purchased DiscoveRx KINOMEscan

[1] = biological target: RPS6KA5(Kin.Dom.2-C-terminal) (Homo sapiens, UniProt O75582); assay: KinomeScan; type: binding; conditions: 1uM
PRKR = biological target: T24, PRKR (Homo sapiens, UniProt P19525); assay: KinomeScan; type: binding; conditions: 1uM
T24 construct: purchased DiscoveRx KINOMEscan

SRMS = biological target: T25, SRMS (Homo sapiens, UniProt Q9H3Y6); assay: KinomeScan; type: binding; conditions: 1uM
T25 construct: purchased DiscoveRx KINOMEscan

SRPK3 = biological target: T26, SRPK3 (Homo sapiens, UniProt Q9UPE1); assay: KinomeScan; type: binding; conditions: 1uM
T26 construct: purchased DiscoveRx KINOMEscan

DAPK2 = biological target: T27, DAPK2 (Homo sapiens, UniProt Q9UIK4); assay: KinomeScan; type: binding; conditions: 1uM
T27 construct: purchased DiscoveRx KINOMEscan

DYRK2 = biological target: T28, DYRK2 (Homo sapiens, UniProt Q92630); assay: KinomeScan; type: binding; conditions: 1uM
T28 construct: purchased DiscoveRx KINOMEscan

DMPK = biological target: T29, DMPK (Homo sapiens, UniProt Q09013); assay: KinomeScan; type: binding; conditions: 1uM
T29 construct: purchased DiscoveRx KINOMEscan

CDC2L1 = biological target: T30, CDC2L1 (Homo sapiens, UniProt P21127); assay: KinomeScan; type: binding; conditions: 1uM
T30 construct: purchased DiscoveRx KINOMEscan

NDR1 = biological target: T31, NDR1 (Homo sapiens, UniProt Q15208); assay: KinomeScan; type: binding; conditions: 1uM
T31 construct: purchased DiscoveRx KINOMEscan

TRPM6 = biological target: T32, TRPM6 (Homo sapiens, UniProt Q9BX84); assay: KinomeScan; type: binding; conditions: 1uM
T32 construct: purchased DiscoveRx KINOMEscan

MAP4K3 = biological target: T33, MAP4K3 (Homo sapiens, UniProt Q8IVH8); assay: KinomeScan; type: binding; conditions: 1uM
T33 construct: purchased DiscoveRx KINOMEscan

T1 sequence (P07333 539-972 limits assumed): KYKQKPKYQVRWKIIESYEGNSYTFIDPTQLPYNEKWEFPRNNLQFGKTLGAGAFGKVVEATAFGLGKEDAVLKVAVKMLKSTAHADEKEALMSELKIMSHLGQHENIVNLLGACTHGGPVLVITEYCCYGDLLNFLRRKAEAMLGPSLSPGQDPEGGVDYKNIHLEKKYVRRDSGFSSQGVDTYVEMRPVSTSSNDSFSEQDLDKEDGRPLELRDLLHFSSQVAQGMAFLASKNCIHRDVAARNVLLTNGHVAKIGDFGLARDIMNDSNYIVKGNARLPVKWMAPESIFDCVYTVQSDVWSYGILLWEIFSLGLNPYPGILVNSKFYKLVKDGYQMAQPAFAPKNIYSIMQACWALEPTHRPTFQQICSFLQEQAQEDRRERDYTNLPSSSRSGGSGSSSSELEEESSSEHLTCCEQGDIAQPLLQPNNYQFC
T28 sequence (Q92630 whole entry): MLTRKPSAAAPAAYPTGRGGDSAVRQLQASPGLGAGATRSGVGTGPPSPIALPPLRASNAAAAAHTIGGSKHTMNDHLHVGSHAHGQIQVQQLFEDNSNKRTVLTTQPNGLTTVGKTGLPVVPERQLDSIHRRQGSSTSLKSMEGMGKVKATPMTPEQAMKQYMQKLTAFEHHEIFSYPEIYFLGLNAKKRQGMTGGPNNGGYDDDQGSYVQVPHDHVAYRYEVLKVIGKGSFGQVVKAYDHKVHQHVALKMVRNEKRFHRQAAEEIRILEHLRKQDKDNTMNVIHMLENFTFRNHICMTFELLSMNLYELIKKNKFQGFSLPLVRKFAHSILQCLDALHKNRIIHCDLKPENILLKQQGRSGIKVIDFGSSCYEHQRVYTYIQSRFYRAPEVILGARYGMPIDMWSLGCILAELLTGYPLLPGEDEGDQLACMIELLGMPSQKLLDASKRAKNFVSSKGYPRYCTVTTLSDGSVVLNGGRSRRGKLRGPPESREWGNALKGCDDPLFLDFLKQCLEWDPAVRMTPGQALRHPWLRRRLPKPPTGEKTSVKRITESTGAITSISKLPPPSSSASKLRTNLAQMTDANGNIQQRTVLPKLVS
PI3Kγ, sequence (P48736 whole entry): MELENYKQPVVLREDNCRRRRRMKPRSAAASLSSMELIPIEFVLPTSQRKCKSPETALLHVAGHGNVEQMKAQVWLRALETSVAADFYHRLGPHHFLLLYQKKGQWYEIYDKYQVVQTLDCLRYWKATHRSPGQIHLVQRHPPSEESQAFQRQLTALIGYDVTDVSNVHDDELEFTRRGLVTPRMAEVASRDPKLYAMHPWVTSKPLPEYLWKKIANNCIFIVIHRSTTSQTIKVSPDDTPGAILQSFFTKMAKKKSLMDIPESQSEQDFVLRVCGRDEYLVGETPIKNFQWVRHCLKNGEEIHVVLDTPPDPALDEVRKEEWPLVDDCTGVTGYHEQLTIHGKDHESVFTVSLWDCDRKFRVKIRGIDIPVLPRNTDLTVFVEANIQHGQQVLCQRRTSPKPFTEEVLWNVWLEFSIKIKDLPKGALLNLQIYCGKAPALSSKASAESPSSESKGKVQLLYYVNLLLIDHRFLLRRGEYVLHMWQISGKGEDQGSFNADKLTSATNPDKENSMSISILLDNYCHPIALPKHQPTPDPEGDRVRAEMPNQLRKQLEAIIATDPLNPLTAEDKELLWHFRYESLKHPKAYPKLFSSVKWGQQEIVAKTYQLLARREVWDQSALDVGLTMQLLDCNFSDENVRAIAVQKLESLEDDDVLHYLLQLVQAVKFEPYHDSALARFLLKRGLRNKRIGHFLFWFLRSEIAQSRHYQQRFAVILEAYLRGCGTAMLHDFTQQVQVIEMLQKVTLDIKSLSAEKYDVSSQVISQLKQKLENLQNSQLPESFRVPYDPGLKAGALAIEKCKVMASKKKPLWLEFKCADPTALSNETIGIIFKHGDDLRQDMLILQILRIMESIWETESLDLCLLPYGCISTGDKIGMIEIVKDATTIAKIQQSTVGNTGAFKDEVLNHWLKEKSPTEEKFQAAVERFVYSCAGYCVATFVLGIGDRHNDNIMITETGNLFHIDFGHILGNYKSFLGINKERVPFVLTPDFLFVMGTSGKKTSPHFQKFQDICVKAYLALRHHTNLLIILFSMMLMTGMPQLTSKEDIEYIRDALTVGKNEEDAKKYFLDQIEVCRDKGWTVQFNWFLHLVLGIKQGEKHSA
T22 sequence (P51817 whole entry): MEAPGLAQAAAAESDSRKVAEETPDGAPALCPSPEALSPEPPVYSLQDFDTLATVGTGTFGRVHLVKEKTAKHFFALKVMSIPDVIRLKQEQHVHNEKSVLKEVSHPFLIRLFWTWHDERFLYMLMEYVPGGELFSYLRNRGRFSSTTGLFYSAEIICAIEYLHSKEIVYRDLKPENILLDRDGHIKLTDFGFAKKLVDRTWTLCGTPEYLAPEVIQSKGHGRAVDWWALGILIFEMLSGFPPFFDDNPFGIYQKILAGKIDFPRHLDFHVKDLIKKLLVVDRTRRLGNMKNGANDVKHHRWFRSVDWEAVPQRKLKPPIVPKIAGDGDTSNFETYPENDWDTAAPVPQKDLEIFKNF
T7 sequence (P78368 whole entry): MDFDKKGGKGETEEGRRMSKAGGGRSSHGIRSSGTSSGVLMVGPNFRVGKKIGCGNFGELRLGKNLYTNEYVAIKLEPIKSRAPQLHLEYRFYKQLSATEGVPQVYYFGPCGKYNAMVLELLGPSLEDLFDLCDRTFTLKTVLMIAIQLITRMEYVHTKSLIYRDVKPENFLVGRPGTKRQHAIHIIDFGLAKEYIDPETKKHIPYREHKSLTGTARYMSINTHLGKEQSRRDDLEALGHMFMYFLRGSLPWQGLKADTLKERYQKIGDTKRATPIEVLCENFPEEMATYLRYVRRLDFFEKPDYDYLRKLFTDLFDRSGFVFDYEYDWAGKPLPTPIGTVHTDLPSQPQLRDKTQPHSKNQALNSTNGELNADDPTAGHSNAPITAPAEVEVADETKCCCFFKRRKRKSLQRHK
T14 sequence (Q16539 whole entry): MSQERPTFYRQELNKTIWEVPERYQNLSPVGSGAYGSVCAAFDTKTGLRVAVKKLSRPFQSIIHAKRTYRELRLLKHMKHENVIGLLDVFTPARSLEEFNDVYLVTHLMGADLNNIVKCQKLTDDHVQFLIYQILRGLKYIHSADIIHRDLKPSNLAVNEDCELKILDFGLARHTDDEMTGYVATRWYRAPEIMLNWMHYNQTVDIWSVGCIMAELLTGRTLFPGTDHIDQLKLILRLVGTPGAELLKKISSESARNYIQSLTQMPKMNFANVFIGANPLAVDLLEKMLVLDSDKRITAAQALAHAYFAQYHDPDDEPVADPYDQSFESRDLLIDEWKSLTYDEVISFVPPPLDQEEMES
T4 sequence (P49761 whole entry): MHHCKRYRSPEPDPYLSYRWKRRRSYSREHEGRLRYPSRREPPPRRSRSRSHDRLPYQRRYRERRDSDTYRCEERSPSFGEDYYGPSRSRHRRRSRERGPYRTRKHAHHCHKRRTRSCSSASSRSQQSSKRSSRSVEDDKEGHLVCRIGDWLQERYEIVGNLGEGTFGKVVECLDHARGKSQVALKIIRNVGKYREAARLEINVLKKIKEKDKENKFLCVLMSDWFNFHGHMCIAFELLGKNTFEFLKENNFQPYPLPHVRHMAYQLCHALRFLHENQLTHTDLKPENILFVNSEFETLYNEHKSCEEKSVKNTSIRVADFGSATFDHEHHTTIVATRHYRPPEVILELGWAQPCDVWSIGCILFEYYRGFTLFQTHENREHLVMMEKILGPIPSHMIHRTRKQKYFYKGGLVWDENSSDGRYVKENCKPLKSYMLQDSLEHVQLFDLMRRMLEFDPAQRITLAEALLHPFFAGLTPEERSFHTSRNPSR
T10 sequence (P54764 20-986): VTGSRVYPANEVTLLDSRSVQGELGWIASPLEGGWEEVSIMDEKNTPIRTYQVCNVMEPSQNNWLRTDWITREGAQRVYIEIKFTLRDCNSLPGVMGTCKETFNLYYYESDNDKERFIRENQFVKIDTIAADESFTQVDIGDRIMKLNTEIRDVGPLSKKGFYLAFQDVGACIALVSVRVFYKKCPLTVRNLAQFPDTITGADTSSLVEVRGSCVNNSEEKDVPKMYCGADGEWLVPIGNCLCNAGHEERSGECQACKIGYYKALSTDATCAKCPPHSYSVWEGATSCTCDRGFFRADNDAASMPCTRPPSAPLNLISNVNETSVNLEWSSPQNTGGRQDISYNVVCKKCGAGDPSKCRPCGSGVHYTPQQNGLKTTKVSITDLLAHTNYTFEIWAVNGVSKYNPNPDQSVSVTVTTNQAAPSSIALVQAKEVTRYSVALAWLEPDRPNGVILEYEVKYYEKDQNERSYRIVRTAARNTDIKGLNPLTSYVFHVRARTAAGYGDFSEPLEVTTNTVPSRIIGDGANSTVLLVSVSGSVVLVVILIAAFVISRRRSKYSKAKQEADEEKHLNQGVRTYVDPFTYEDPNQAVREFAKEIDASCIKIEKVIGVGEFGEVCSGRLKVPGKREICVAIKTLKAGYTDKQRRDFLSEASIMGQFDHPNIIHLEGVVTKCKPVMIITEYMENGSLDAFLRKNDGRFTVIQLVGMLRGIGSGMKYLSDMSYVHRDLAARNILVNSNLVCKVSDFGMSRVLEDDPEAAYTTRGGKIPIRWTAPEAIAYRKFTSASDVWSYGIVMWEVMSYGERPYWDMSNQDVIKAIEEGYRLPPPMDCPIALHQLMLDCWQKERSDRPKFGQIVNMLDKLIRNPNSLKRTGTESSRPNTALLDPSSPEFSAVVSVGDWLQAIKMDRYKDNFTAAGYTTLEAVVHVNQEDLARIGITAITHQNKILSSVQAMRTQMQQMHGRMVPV

SMILES: Cc1nc(NC(=O)[C@@H](N)C(C)C)sc1-c1cnc(Cl)c(NS(=O)(=O)c2ccccc2)c1 [PI3KD-IN-015]
- KinomeScan CSF1R-autoinhibited (CSF1R-autoinhibited): 100
- KinomeScan CTK (CTK): 93
- KinomeScan ZAP70 (ZAP70): 96
- KinomeScan CLK3 (CLK3): 100
- KinomeScan GSK3A (GSK3A): 95
- KinomeScan ERK4 (ERK4): 100
- KinomeScan CSNK1G2 (CSNK1G2): 100
- KinomeScan BMPR2 (BMPR2): 96
- KinomeScan FGFR2 (FGFR2): 100
- KinomeScan EPHA4 (EPHA4): 100
- KinomeScan CDKL3 (CDKL3): 100
- PARP cleavage (apoptosis) (PARP cleavage; MEC-1 cell (CLL)): only weakly
- PARP cleavage (apoptosis) (PARP cleavage; MOLM-13 cell (AML), HT cell (B-NHL)): apparent PARP cleavage
- KinomeScan FLT3(N841I) (FLT3(N841I)): 87
- KinomeScan TESK1 (TESK1): 100
- KinomeScan p38-alpha (p38-alpha): 100
- KinomeScan CDK2 (CDK2): 88
- GI50 (AML patient primary cell; AML1, patient primary cell AML1): 1830 nM
- GI50 (AML patient primary cell; AML3, patient primary cell AML3): 9200 nM
- GI50 (AML patient primary cell; most of AML patient cells): < 10000 nM
- GI50 (AML patient primary cell; patient primary cell AML2): 850 nM
- GI50 (AML patient primary cell; patient primary cell AML4): 2800 nM
- GI50 (AML patient primary cell; patient primary cell AML5): 6300 nM
- GI50 (AML patient primary cell; patient primary cell AML6): > 10000 nM
- KinomeScan FLT3 (FLT3): 100
- KinomeScan BLK (BLK): 97
- KinomeScan SYK (SYK): 100
- KinomeScan CSNK1A1 (CSNK1A1): 100
- KinomeScan SBK1 (SBK1): 66
- KinomeScan EPHA8 (EPHA8): 100
- IC50 (PI3Kγ): 125 nM
- KinomeScan PRKX (PRKX): 95
- KinomeScan PAK3 (PAK3): 92
- KinomeScan RPS6KA5(Kin.Dom.2-C-terminal) [1]: 100
- KinomeScan PRKR (PRKR): 100
- KinomeScan SRMS (SRMS): 90
- KinomeScan SRPK3 (SRPK3): 100
- KinomeScan DAPK2 (DAPK2): 97
- KinomeScan DYRK2 (DYRK2): 100
- KinomeScan DMPK (DMPK): 83
- KinomeScan CDC2L1 (CDC2L1): 100
- KinomeScan NDR1 (NDR1): 100
- KinomeScan TRPM6 (TRPM6): 100
- KinomeScan MAP4K3 (MAP4K3): 91
